Literature values, collected in US20260240758A1, “INJECTABLE PHENYLEPHRINE COMPOSITIONS” (Hikma Pharmaceuticals USA Inc., priority 2022, published 2026).

Conditions: phenylephrine HCl 400 μg/ml and 200 μg/ml, PVC bags, 60 days at room temperature

phenylephrine degraded: 4-5%
SMILES: CNC[C@H](O)c1cccc(O)c1 [phenylephrine]
